The structures appear in SMILES notation. pIC50: −log10 of the molar value. “And” between values parts separate entries of the source, which are not always exact repeats. Identical values can stand only once.

ACK1, sequence (Q07912 whole entry): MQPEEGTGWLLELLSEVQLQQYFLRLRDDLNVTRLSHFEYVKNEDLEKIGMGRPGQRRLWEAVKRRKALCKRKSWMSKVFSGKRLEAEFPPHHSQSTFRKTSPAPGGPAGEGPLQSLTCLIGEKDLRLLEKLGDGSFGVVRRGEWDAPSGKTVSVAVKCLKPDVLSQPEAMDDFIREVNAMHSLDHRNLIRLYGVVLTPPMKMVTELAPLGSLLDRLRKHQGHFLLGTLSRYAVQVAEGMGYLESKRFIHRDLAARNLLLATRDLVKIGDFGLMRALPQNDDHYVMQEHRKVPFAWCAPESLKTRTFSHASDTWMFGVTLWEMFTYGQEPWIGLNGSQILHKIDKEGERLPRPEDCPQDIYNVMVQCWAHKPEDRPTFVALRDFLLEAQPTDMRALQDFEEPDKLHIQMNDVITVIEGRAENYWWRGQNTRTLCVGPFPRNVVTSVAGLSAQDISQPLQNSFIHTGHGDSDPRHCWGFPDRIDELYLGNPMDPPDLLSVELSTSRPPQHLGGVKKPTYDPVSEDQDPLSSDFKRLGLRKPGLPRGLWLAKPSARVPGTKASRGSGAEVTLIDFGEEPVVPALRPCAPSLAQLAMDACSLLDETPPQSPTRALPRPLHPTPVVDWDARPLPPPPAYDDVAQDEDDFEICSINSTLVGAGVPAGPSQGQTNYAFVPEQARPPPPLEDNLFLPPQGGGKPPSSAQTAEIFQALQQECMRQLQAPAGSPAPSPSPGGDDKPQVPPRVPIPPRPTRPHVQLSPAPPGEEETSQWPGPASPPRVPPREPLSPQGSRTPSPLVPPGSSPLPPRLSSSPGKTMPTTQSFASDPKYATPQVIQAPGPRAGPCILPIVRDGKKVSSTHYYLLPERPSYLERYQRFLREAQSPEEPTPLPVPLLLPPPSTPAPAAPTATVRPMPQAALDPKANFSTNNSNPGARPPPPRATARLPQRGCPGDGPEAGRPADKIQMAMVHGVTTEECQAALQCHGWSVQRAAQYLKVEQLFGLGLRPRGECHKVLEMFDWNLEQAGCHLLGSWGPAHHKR

The target in this test is ACK1 (Homo sapiens, UniProt Q07912). Description: Kinase inhibition assay, IC50 (Table A). The test is classed as biochemical. The note with it: Enzyme ACK1. As for the experimental part:
The inhibiting activity of putative kinase inhibitors and the potency of selected compounds is determined through a method of assay based on the use of the Kinase-Glo® Luminescent Kinase Assay (commercially available from Promega corporation and described in Koresawa, M. and Okabe, T. (2004) High-throughput screening with quantitation of ATP consumption: A universal non-radioisotope, homogeneous assay for protein kinase. Assay Drug Dev. Technol. 2, 153-60).
The inhibitory activity of putative kinase inhibitors and the potency of selected compounds were also determined using a trans-phosphorylation assay.
Specific peptide or protein substrates are trans-phosphorylated by their specific ser-thr or tyr kinase in the presence of ATP traced with ^33P-γ-ATP, and in the presence of their own optimal buffer and cofactors. At the end of the phosphorylation reaction, more than 98% unlabeled ATP and radioactive ATP is captured by an excess of the ion exchange dowex resin; the resin then settles down to the bottom of the reaction plate by gravity. Supernatant is subsequently withdrawn and transferred into a counting plate, then evaluated by β-counting.
Reaction conditions are target (enzyme) dependent and thus undergo individual adaptations. Also the buffer conditions may vary depending on the kinase of interest. The assay can be used with virtually any kinase and substrate combination and is suitable for all type of protein kinases, such as ABL, ACK1, AKT1, ALK, AUR1, AUR2, BRK, BUB1, CDC7/DBF4, CDK21CYCA, CHK1, CK2, EEF2K, EGFR1, EphA2, EphB4, ERK2, FAK, FGFR1, FLT3, GSK3beta, Haspin, IGFR1, IKK2, IR, JAK1, JAK2, JAK3, KIT, LCK, LYN, MAPKAPK2, MELK, MET, MNK2, MPSI, MST4, NEK6, NIM1, P38alpha, PAK-4, PDGFR, PDK1, PERK, PIM1, PIM2, PKAalpha, PKCbeta, PLK1, RET, ROS1, SULU1, Syk, TLK2, TRKA, TYK, VEGFR2, VEGFR3, ZAP70.
Turning to `Cc1ccc(C(=O)Nc2n[nH]c3c2CCn2cc(C(=O)N4CCOCC4)cc2-3)c(C)c1` [Example A35-M1-B7], the pIC50 was 5.23. The same measure for `O=C(NC1CCCC1)c1cc2n(c1)CCc1c(NC(=O)c3ccccc3Cl)n[nH]c1-2` [Example A5-M1-B28]: 5.36. With `Cc1ccccc1C(=O)Nc1n[nH]c2c1CCCn1cc(C(=O)NCC3CC3)cc1-2` [Example A21-M2-B41], the pIC50 was 5.81. For the compound `CCCN1CCN(C(=O)c2cc3n(c2)CCc2c(NC(=O)c4ccccc4F)n[nH]c2-3)CC1` [Example A20-M1-B32], the pIC50 is 5.51. For `CCN(CC)C(=O)c1cc2n(c1)CCc1c(NC(=O)c3ccccc3Cl)n[nH]c1-2` [Example A5-M1-B17], the pIC50 is 5.67. The same measure for `O=C(NCc1ccccn1)c1cc2n(c1)CCCc1c(NC(=O)c3ccccc3Cl)n[nH]c1-2` [Example A5-M2-B26]: 5.32; for `Cc1ccccc1C(=O)Nc1n[nH]c2c1CCn1cc(C(=O)NCC3CC3)cc1-2` [Example A21-M1-B41]: 5.61. The same measure for `CC(C)NC(=O)c1cc2n(c1)CCc1c(NC(=O)c3ccccc3Cl)n[nH]c1-2` [Example A5-M1-B10]: 5.49; for `Cc1cc(C)c(C(=O)Nc2n[nH]c3c2CCn2cc(C(=O)N4CCCC4)cc2-3)c(C)c1` [Example A39-M1-B8]: 6.12. Take `Cc1ccc(C(=O)Nc2n[nH]c3c2CCn2cc(C(=O)NC(C)C)cc2-3)c(C)c1` [Example A35-M1-B10]: the pIC50 was 5.50. The result for `CCN(CC)C(=O)c1cc2n(c1)CCc1c(NC(=O)c3ccccc3C)n[nH]c1-2` [Example A21-M1-B17] reads 5.85; that for `Cc1cc(C)c(C(=O)Nc2n[nH]c3c2CCn2cc(C(=O)N4CCC(N5CCCCC5)CC4)cc2-3)c(C)c1` [Example A39-M1-B34], 5.26; that for `Cc1ccc(C(=O)Nc2n[nH]c3c2CCn2cc(C(=O)NC4CC4)cc2-3)c(C)c1` [Example A35-M1-B30], 5.18.

As for `CC(C)N1CCN(C(=O)c2cc3n(c2)CCc2c(NC(=O)c4ccccc4Cl)n[nH]c2-3)CC1` [Example A5-M1-B40], the negative-log IC50 (pIC50) is 5.76.

In the case of `O=C(Nc1n[nH]c2c1CCn1cc(C(=O)N3CCSCC3)cc1-2)c1ccccc1Cl` [Example A5-M1-B38], the pIC50 is 5.67. The result for `O=C(NCC1CC1)c1cc2n(c1)CCCc1c(NC(=O)c3ccccc3Cl)n[nH]c1-2` [Example A5-M2-B41] reads 6.36 and 6.62; that for `Cc1ccc(C(=O)Nc2n[nH]c3c2CCn2cc(C(=O)N4CCCCC4)cc2-3)c(C)c1` [Example A35-M1-B42], 5.66. For `O=C(NCC1CC1)c1cc2n(c1)CCCc1c(NC(=O)c3c(Cl)cccc3Cl)n[nH]c1-2` [Example A38-M2-B41], the pIC50 is 5.55. The same measure for `O=C(NCCN1CCCCC1)c1cc2n(c1)CCCc1c(NC(=O)c3ccccc3Cl)n[nH]c1-2` [Example A5-M2-B31]: 5.45.

`CC(C)CNC(=O)c1cc2n(c1)CCCc1c(NC(=O)C(C)C)n[nH]c1-2` [Example A27-M2-B39]: the pIC50 was 5.50.

On to `COc1ccccc1C(=O)Nc1n[nH]c2c1CCn1cc(C(=O)N3CCCC3)cc1-2` [Example A6-M1-B8], for which the pIC50 is 5.72.

Take `CCCN1CCN(C(=O)c2cc3n(c2)CCc2c(NC(=O)c4ccc(C)cc4C)n[nH]c2-3)CC1` [Example A35-M1-B32]: the pIC50 is 5.92. The same measure for `C=CCNC(=O)c1cc2n(c1)CCc1c(NC(=O)c3ccccc3Cl)n[nH]c1-2` [Example A5-M1-B36]: 5.39; for `Cc1ccc(C(=O)Nc2n[nH]c3c2CCn2cc(C(=O)NCC4CC4)cc2-3)c(C)c1` [Example A35-M1-B41]: 5.54; for `C=CCNC(=O)c1cc2n(c1)CCCc1c(NC(=O)c3ccccc3Cl)n[nH]c1-2` [Example A5-M2-B36]: 6.13. Regarding `Cc1ccc(C(=O)Nc2n[nH]c3c2CCCn2cc(C(=O)NCC(C)C)cc2-3)c(C)c1` [Example A35-M2-B39], the pIC50 is 5.85.

As for `CCC(C)NC(=O)c1cc2n(c1)CCc1c(NC(=O)c3ccccc3Cl)n[nH]c1-2` (stereo not drawn) [Example A5-M1-B27], the pIC50 is 5.62.

(Values after US9127015B2, “Tricyclopyrazole derivatives” (NERVIANO MEDICAL SCIENCES S.R.L., priority 2009, dated 2015).)
